US4340539A, “Derivatives of 6-bromo penicillanic acid” (priority 1980, dated 1982)
Where a name gives a salt, the structure may show the parent alone. Read-outs that look alike come from different tables or passages of the source.

Tests used:
[1] = test system: B. fragilis; test: Anti-Bacteroides activity (MIC, agar dilution), alone and in combination with BL-P2013; format: cell-based
[2] = test system: B. thetaiotaomicron; test: as above; format: cell-based
Protocol: *Minimum inhibitory concentration (MIC) determined by the agar dilution
method using 50X dilutions of 24 hour cultures as inocula dispensed by th
Steer's inoculator. Assay medium composed of Brucella Agar plus 5% laked
sheep blood and 10 mcg/ml vitamin K.

[3] = test system: Bacteroides species; test: as above; format: cell-based; settings: Bacteroides
[4] = man, cited from earlier work
[5] = Hygroscopicity; format: physicochemical

For `NCc1ccccc1CC(=O)N[C@@H]1C(=O)N2C(C(=O)O)=C(CSc3nnnn3CC(=O)O)CS[C@H]12` [Ceforanide], the MIC ([1]; strain A21875, β-lactamase +, read-out: MIC) was 32 µg/mL, the MIC ([1]; strain A21916, β-lactamase +, read-out: MIC) was 63 µg/mL and the MIC ([1]; strain A22021, β-lactamase +, read-out: MIC) was 32 µg/mL. For the same molecule, the MIC ([1]; strain A22053, β-lactamase +, read-out: MIC) was 32 µg/mL, the MIC ([1]; strain A22533, β-lactamase +) was > 125 µg/mL and the MIC ([1]; strain A22534, β-lactamase +) was > 125 µg/mL. For the same molecule, the MIC ([1]; strain A22535, β-lactamase +) was > 125 µg/mL, the MIC ([1]; strain A22693, β-lactamase +, read-out: MIC) was 63 µg/mL and the MIC ([1]; strain A22694, β-lactamase +) was 125 µg/mL. The MIC ([1]; strain A22695, β-lactamase +) was > 125 µg/mL, the MIC ([1]; strain A22696, β-lactamase +) was > 125 µg/mL and the MIC ([1]; strain A22697, β-lactamase +, read-out: MIC) was 63 µg/mL. The MIC ([1]; strain A22792, β-lactamase +) was > 125 µg/mL, the MIC ([1]; strain A22793, β-lactamase +, read-out: MIC) was 32 µg/mL and the MIC ([1]; strain A22794, β-lactamase +, read-out: MIC) was 32 µg/mL. For the same molecule, the MIC ([1]; strain A22795, β-lactamase +, read-out: MIC) was 63 µg/mL, the MIC ([1]; strain A22797, β-lactamase +, read-out: MIC) was 63 µg/mL and the MIC ([1]; strain A22798, β-lactamase +, read-out: MIC) was 32 µg/mL. It also gave an MIC ([2]; Bacteroides thetaiotaomicron, strain A22277, β-lactamase +, read-out: MIC) of 125 µg/mL, an MIC ([2]; strain A22279, β-lactamase +) of 125 µg/mL and an MIC [3] of 125 µg/mL. For the same molecule, the MIC ([3]; strain A20927-1, β-lactamase -, read-out: MIC) was 0.5 µg/mL, the MIC ([3]; strain A20929, β-lactamase +, read-out: MIC) was 63 µg/mL and the MIC ([3]; strain A20931, β-lactamase +, read-out: MIC) was 63 µg/mL. For the same molecule, the MIC ([3]; strain A20933, β-lactamase +, read-out: MIC) was 63 µg/mL, the MIC ([3]; strain A20934, β-lactamase +, read-out: MIC) was 32 µg/mL and the MIC ([3]; strain A20935, β-lactamase -, read-out: MIC) was 2 µg/mL. The MIC ([3]; strain A21954, β-lactamase +, read-out: MIC) was 63 µg/mL and the MIC ([3]; strain A21959, β-lactamase +, read-out: MIC) was 63 µg/mL.

For `CC1(C)S[C@@H]2[C@H](NC(=O)[C@H](N)c3ccccc3)C(=O)N2[C@H]1C(=O)OCOC(=O)[C@@H]1N2C(=O)C[C@H]2S(=O)(=O)C1(C)C` [Example 3], the absorption ([4]; gastro-intestinal tract) is listed as “excellently absorbed”, the “blood and tissue levels of antibiotic and β-lactamase inhibitor” value [4] is listed as “high blood and tissue levels” and the hydrolysis after absorption [4] is listed as “hydrolyzed with simultaneous liberation of the active components”.

In the case of `CC1(CCl)C(C(=O)O)N2C(=O)CC2S1(=O)=O` (stereo not drawn) [Sodium Salt of BL-P2013], the hygroscopicity [5] is reported as “Non-hygroscopic”.
